This assay addresses T1, PCSK9 (Homo sapiens, UniProt Q8NBP7).
T1 construct: gift from Dr. Daniel Kirchhofer, Genentech
The assay is described as follows: SPR measurement of PCSK9 binding to synthesized pep2-8. The settings on record: synthesized peptide on streptavidin-coated gold surface, average and standard deviation over PCSK9 concentrations.

T1 sequence (Q8NBP7 153-692, species assumed): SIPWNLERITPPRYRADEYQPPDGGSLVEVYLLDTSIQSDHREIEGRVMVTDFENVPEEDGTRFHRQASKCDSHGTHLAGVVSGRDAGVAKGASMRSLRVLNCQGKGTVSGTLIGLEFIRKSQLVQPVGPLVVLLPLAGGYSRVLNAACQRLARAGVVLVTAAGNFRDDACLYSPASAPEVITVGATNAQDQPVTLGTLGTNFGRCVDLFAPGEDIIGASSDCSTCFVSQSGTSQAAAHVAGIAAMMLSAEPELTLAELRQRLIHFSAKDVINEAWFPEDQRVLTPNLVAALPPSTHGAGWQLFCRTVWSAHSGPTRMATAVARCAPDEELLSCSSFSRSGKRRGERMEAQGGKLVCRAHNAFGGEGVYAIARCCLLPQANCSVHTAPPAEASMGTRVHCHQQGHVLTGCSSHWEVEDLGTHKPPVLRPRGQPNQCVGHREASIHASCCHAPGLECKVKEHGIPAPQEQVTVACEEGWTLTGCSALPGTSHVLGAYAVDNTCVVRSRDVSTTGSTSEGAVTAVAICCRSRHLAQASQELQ
Method: The synthesized peptide was immobilized to a streptavidin-coated gold surface. Different concentrations of PCSK9 were flowed to the surface to measure the binding kinetics.
The SPR sensor chip was fabricated by coating 1.5 nm Cr and then 47 nm Au on cover glass (no. 1 VWR) using an e-beam evaporator. Prior to surface functionalization, the gold surface was cleaned with ethanol and DI water twice, dried by N2, and annealed by H2 flame. The gold chip was immersed in a mixture of 0.2 mM SH-PEG8-COOH and 0.2 mM MT(PEG)4 overnight. Then, —COOH was activated using NHS/EDC chemistry (50 mM NHS and 200 mM EDC) for 20 min and incubated with 0.1 mg/mL streptavidin in PBS for 30 min to allow immobilization. The remaining unreacted sites were quenched with 10 mM ethanolamine and the nonspecific binding sites were blocked with SuperBlock for 10 min. […] The functionalized chip was finally rinsed with PBS before the measurement.

Turning to `CC(=O)N[C@H](C(=O)N[C@H](C(=O)N[C@@H](Cc1ccccc1)C(=O)N[C@H](C(=O)N[C@@H](CO)C(=O)N[C@@H](Cc1c[nH]c2ccccc12)C(=O)N[C@@H](CCC(=O)O)C(=O)N[C@@H](CCC(=O)O)C(=O)N[C@@H](Cc1ccc(O)cc1)C(=O)N[C@@H](CC(C)C)C(=O)N[C@@H](CC(=O)O)C(=O)N[C@@H](Cc1c[nH]c2ccccc12)C(=O)N[C@H](C(N)=O)C(C)C)[C@@H](C)O)C(C)C)[C@@H](C)O` [pep2-8], the kd entry is listed as “(1.73±0.25)×10^−1 s^−1”.

Values taken from patent US12259330B2 (ARIZONA BOARD OF REGENTS ON BEHALF OF ARIZONA STATE …, priority 2021, dated 2025).
